Results taken from PubChem BioAssay AID1324 (NMMLSC, 2008).
Activity calls are given as the source filed them. The rule behind the calls is not given here.

Target: glutathione S-transferase (GST-GSH binding)
Test: GST–glutathione interaction disruption – biochemical, multiplex beads, flow cytometry, HPSMTB buffer, profiling panel (AID 1324);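 note: glutathione beads loaded with GST-green fluorescent protein and no fluorescent Bim peptide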
Conditions: multiplex bead flow cytometry, MCF

Structure (SMILES)	EC50
Cc1cccc(N=C2NC(=O)/C(=C/C=C/c3ccco3)S2)c1C	inactive
O=C(Nc1ccc2nc(-c3ccco3)c(-c3ccco3)nc2c1)N1CCCCCC1	inactive
COc1cc2[nH]c(=S)nc(NCC3CCCO3)c2cc1OC (centres undefined)	inactive
CCOC(=O)c1c2c3c(c(Cl)ccc3[nH]c1=O)C(=O)c1ccccc1-2	5.4 µM
CN(/N=C/c1ccncc1)C1=NS(=O)(=O)c2ccccc21	3.16 µM
NC(=O)c1sc2nc3c(c(-c4ccco4)c2c1N)CCC3	inactive
Cc1cc(C)nc(SCc2cc(=O)c(OC(=O)c3ccc(Cl)c([N+](=O)[O-])c3)co2)n1	6.13 µM
CN1CCc2cccc3c2[C@@H]1Cc1ccc(O)c(O)c1-3	inactive

Same assay, conditions: multiplex bead flow cytometry, MCF, active compounds read high, concentration not given here

Structure (SMILES)	percent span inhibition
O=S1(=O)N=C(N(CCO)/N=C/c2ccccc2)c2ccccc21	inactive
O=C(CSc1nnc(-c2ccco2)n1Cc1ccccc1)c1ccccc1	inactive
COc1ccc2nc(C)cc(SCC(=O)N/N=C/c3ccc(O)c(O)c3)c2c1	inactive
COc1ccc(NC(=O)c2cc(-c3ccc(C)o3)nc3ccccc23)cc1OC	inactive
CCOc1cc(C2Nc3cccc4cccc(c34)N2)ccc1O	inactive
Cc1ccc(C(NC(=O)C(C)C)c2cc([N+](=O)[O-])c3cccnc3c2O)cc1 (centres undefined)	inactive
COc1ccc(N2CCN(C(CNS(=O)(=O)c3ccc4c(c3)OCCO4)c3ccco3)CC2)cc1 (centres undefined)	inactive
CCN(CC)c1ccc(-c2nn3c(-c4cccnc4)nnc3s2)cc1	inactive
Cc1cc(Cl)ccc1N=c1ssnc1Cl	inactive
O=C(N/N=C/c1cccnc1)c1cccc(S(=O)(=O)N2CCCC2)c1	inactive
CN(C)c1ccc(/C=C2/SC(=O)N(CCN=C3NS(=O)(=O)c4ccccc43)C2=O)cc1	inactive
O=C1NCCN1C(=O)N(c1ccccc1)c1ccccc1	inactive
CCC(=O)OCCNc1cc(Sc2nccn2C)c2nonc2c1[N+](=O)[O-]	inactive
c1csc(C2=Nn3c(nnc3-c3ccncc3)SC2)c1	inactive
CNc1ccc(Br)cc(C(=O)/C=C/c2cc(OC)ccc2OC)c1=O	inactive
O=C(COC(=O)CCCN=C1NS(=O)(=O)c2ccccc21)NC(=O)NC1CCCC1	inactive
CNc1ccc(Br)cc(C(=O)/C=C/c2ccc(OC)cc2)c1=O	inactive
Cc1ccc(/C=C2\CCCC3=C2NC(=S)NC3c2ccc(C)cc2)cc1 (centres undefined)	inactive
COc1ccc(NC(=O)/C(Cl)=C(/Cl)S(=O)Cc2ccccc2)cn1 (centres undefined)	inactive
COc1ccc(CCNC(=O)c2cc(-c3ccccn3)nc3c(Cl)cccc23)cc1OC	inactive
CCCCC(=O)Nc1ccc(C(=O)N2CCC(C(=O)OCC)CC2)cc1	inactive
CC1C=CCC2C(=O)N(c3ccc(OC(=O)c4cccs4)cc3)C(=O)C12 (centres undefined)	inactive
CCN(CC)c1ccc(NC(=O)c2ccccc2Br)cc1S(=O)(=O)Nc1ccccc1OC	inactive

Structure (SMILES)	percent span inhibition
COc1ccc(NC(=O)c2cccs2)cc1	inactive
Cc1cc(C)c[n+](-c2nc3ccccc3nc2C(=C=[N-])C#N)c1	inactive
Nc1c(C(=O)NCC2CCCO2)sc2nc3c(c(-c4ccco4)c12)CC/C3=C\c1ccco1 (centres undefined)	inactive
Cn1c(=O)[nH]c(=O)c2c1nc(N1CCOCC1)n2CCSc1nc2ccccc2[nH]1	inactive
CSc1ccccc1NC(=O)CN(C)CC(=O)Nc1ccc(N2CCOCC2)cc1	inactive
CC(=O)c1ccc(NC(=O)c2ccc3nc(-c4ccco4)c(-c4ccco4)nc3c2)cc1	inactive
O=C(CSc1nnc(-c2ccccc2)c(-c2ccccc2)n1)N1CCc2ccccc21	inactive
CC(=O)c1ccc2c(c1)C1C=CCC1C(c1ccncc1)N2 (centres undefined)	inactive
O=C(Nc1cccc(C(F)(F)F)c1)c1ccc2nc(-c3ccco3)c(-c3ccco3)nc2c1	inactive
CC1(C)Cc2c(ccc3ccccc23)/C(=C/C(=O)N2CCCCC2)N1	inactive
Cc1cccc(NC(=S)N2CCn3cccc3C2c2cccnc2)c1 (centres undefined)	inactive
COc1ccc(C)cc1-n1c(=O)c2ccccc2c2ccccc2c1=O	inactive
CC1Nc2ccccc2C(=O)N1NS(C)(=O)=O (centres undefined)	inactive
O=C(COc1ccccc1)Nc1ccc2c(c1)Cc1cc(NC(=O)COc3ccccc3)ccc1-2	inactive
CC(C)CCN1CCN(Cc2cccc3cccnc23)CC1CCO (centres undefined)	inactive
Nc1ccccc1N=c1ssnc1Cl	inactive
Fc1cccc(Nc2nc(-c3ccncc3)nc3ccccc23)c1	inactive
S=C(Nc1ccc(N2CCOCC2)cc1)Nc1ccc2nc(-c3ccco3)c(-c3ccco3)nc2c1	inactive
Nc1c(C(=O)NCc2ccco2)sc2nc3c(cc12)C(=O)CCC3	inactive
CCOC(=O)/C(=C\c1ccc(Cl)cc1)c1nc2sc(C)c(C)c2c(=O)[nH]1	inactive
Cc1cc(C)nc(/N=C(\N)N2CCc3ccccc32)n1	inactive
CC(=O)OCCNc1cc(Sc2nc3ccccc3[nH]2)c2nonc2c1[N+](=O)[O-]	inactive
CN(C)C(=O)N1CCC(C(=O)NC2CCCCCCC2)CC1	inactive

Structure (SMILES)	percent span inhibition
O=c1c2c(n3nnnc3n1Cc1ccccc1)-c1ccccc1CC21CCCC1	inactive
CN(Cc1cccs1)C(=O)CCc1c[nH]c2ccccc12	inactive
O=C1C=C(Nc2ccccc2)C(=O)c2ccccc21	inactive
COc1cc(/C=C2\S/C(=N/S(=O)(=O)c3ccc(C)cc3)NC2=O)c([N+](=O)[O-])cc1OC	inactive
Cc1cccn2c(=O)c3cc(C(N)=S)c(=N)n(CCCN4CCOCC4)c3nc12	inactive
CC1Cc2ccccc2N1C(=O)CSc1nnnn1-c1ccc2c(c1)OCCO2 (centres undefined)	inactive
CNc1ccc(Br)cc(C(=O)/C=C/c2cccc(OC)c2OC)c1=O	inactive
Cc1ccc(C)c(NC(=O)C(=O)NCc2ccccn2)c1	inactive
Nc1ccc(Nc2nc(-c3ccncc3)cs2)cc1	inactive
Cc1cc(Cl)c(S(=O)(=O)NCC2CCCO2)cc1OCC(N)=O (centres undefined)	inactive
O=C1NC(=S)S/C1=C/c1ccc(N2CCOCC2)o1	inactive
CN(C)c1ccc(C(=O)/C=C/c2ccc(Br)cc2)cc1	inactive
O=C(N/N=C/c1cccc([N+](=O)[O-])c1)c1cccs1	inactive
CCOC(=O)c1nn(-c2ccccc2)c(C#N)c1N	inactive
Cc1ccc(/C=N/NC(=O)CSc2nnc(-c3ccc(Cl)cc3)n2-c2ccccc2)o1	inactive
Fc1ccccc1/C=C1\CCCC2=C1NC(=S)NC2c1ccccc1F (centres undefined)	inactive
c1cncc(-c2nnc3n2N=C(c2cccs2)CS3)c1	inactive
CCCn1c(C)cc(-c2csc(N)n2)c1C	inactive
O=C(CCl)Nc1cccc2ncccc12	inactive
O=C(/C=C/c1ccc(-c2ccccc2[N+](=O)[O-])o1)c1ccccc1	inactive
COc1ccc(C)cc1Nc1ccc(C(=O)O)cc1[N+](=O)[O-]	inactive
COc1cc(/C=C2\CC/C(=C\c3cc(OC)c(O)c(OC)c3)C2=O)cc(OC)c1O	inactive
Fc1ccccc1-n1cc(-c2ccccc2)[nH]c1=S	inactive

Structure (SMILES)	percent span inhibition
CCOc1cc(CNc2ccc(N(C)C)cc2)cc(Br)c1OCC(=O)NC(C)(C)C	inactive
CCOc1ccccc1-n1c(=O)c2ccccc2c2ccccc2c1=O	inactive
COc1cc(CNc2ccc(N3CCCC3)cc2)cc(Cl)c1OC	inactive
COc1cc(C=Nc2cccc(C)c2)c(O)c([N+](=O)[O-])c1	inactive
Cc1ccc(C(=O)N/N=C2/NC(=O)CC(C(=O)Nc3ccccc3)S2)cc1 (centres undefined)	inactive
CN(Cc1ccccc1)C(=O)c1[nH]cnc1C(=O)N[C@@H](CCCCNC(=O)OC(C)(C)C)C(=O)OC(C)(C)C	inactive
Cc1ccc(N=c2ssnc2Cl)cc1	inactive
O=C(C[n+]1ccc(-c2nnc3n2CCC3)cc1)c1ccc(Cl)c(Cl)c1	inactive
O=C(Nc1nnc(C2CC2)s1)C1Cc2ccccc2CN1S(=O)(=O)c1ccccc1F (centres undefined)	inactive
O=C(c1cc2ccccc2oc1=O)N(c1ccccc1)C1C=CS(=O)(=O)C1 (centres undefined)	inactive
C1=CC2c3ccccc3NC(c3ccncc3)C2C1 (centres undefined)	inactive
Cc1cc(N2CCN(C)CC2)nc2ccc(NC(=S)N3CCCCC3)cc12	inactive
COc1ccc2cc(CN(CCc3ccccc3)Cc3nnnn3CC3CCCO3)c(=O)[nH]c2c1 (centres undefined)	inactive
CN(C)CCNC(=O)C(=O)C1C(=O)Nc2ccccc21 (centres undefined)	inactive
Cc1cc2nc(/C(C#N)=C/c3ccncc3)[nH]c2cc1C	inactive
O=C(CSc1nc2ccsc2c(=O)n1Cc1ccc(C(=O)O)cc1)NCC1CCCO1 (centres undefined)	inactive
Cc1ccc(-c2nc(N3CCOCC3)s[n+]2-c2ccccc2)cc1	inactive
CCOC(=O)c1cc2c(=O)n3cccc(C)c3nc2n(Cc2ccco2)c1=NC(=O)c1ccccc1	inactive
Cc1ccc(-c2cc(-c3ccc(F)cc3)c(C#N)c(N)n2)o1	inactive
Cc1nnc2ccc(-c3cccc(NC(=O)c4ccco4)c3)nn12	inactive
Cc1c(Cc2ccccc2)sc(N)c1C(N)=O	inactive
N/C(=N\OC(=O)CCC1CCCC1)c1ccncc1	inactive
